According to patent publication US20210353595A1, “USE OF MELATONIN IN PREPARATION OF MEDICAMENT FOR INHIBITING AND/OR KILLING BACTERIUM” (priority 2020, published 2021):
In brackets after ≈: the same amount, converted by molar mass.

What was measured:
[1] = tested on: Pasteurella multocida; test: Non-targeted metabonomic analysis; assay type: cell-based; conditions: 1 mg/mL of MT, 12 hours
Protocol: 1 mL of fresh Pasteurella multocida (P. multocida) at the logarithmic growth stage was added into 100 mL of fresh Martin liquid medium containing 1 mg/mL of MT, and MT-free DMSO was used as a solvent control group. All cultures were incubated with shaking at 37° C. and 220 rpm for 12 hours. The bacterial samples were centrifuged at a speed of 3000 rpm/min at 4° C. for 10 minutes, the supernatant was removed, and the bacterial cells were collected and washed with PBS for 3 times. The bacterial cells were rapidly frozen in liquid nitrogen, transferred to dry ice, and sent to Shanghai Baiqu Biomedical Technology Co., Ltd. for metabolomic analysis (Q Exactive Orbitrap, Thermo Fisher Scientific, USA). Through the non-targeted metabonomic study of Pasteurella multocida cells before and after melatonin treatment, it was clarified which metabolic pathway of the bacteria is affected by melatonin in exerting the antibacterial activity of melatonin.

[2] = tested on: Bovine meningitic Escherichia coli; test: MIC/MBC bacteriostatic and bactericidal test; assay type: cell-based
Protocol: (§1) 1 mL of a fresh suspension of bacteria (1×10^9 CFU) at the logarithmic growth stage was added into 100 mL containing different concentrations (50 mg/mL, 25 mg/mL, 12.5 mg/mL, 6.25 mg/mL, 3.125 mg/mL, 1.5625 mg/mL, 0.78125 mg/mL, 0.390625 mg/mL) of melatonin. A melatonin (MT)-free solution diluted with DMSO was used as a control group. The samples were shaken at 37° C. and a rotation speed of 120 r/min with protection from light for 12 hours, and then subjected to detection of the minimal inhibitory concentration (MIC) of MT on bacteria. Then, 0.1 mL of the aforementioned transparent bacterial solution was pipetted onto a sterilized agar plate of a specific culture medium and coated evenly, incubated in an incubator at 37° C. for 24 hours, and then subjected to detection of the minimum bactericidal concentration (MBC) of MT on pathogens, wherein the minimum concentration of MT at which no bacterium grew was the MBC of MT on pathogens. Each experiment was carried out for 3 times, and each group was set in triplicate.

[3] = tested on: Escherichia coli C83902 (ATCC72864); test: MIC/MBC bacteriostatic and bactericidal test; assay type: cell-based
Protocol: as §1

[4] = tested on: Staphylococcus aureus (ATCC25923); test: MIC/MBC bacteriostatic and bactericidal test; assay type: cell-based
Protocol: as §1

[5] = tested on: Klebsiella pneumoniae; test: MIC/MBC bacteriostatic and bactericidal test; assay type: cell-based
Protocol: as §1

[6] = tested on: Lactobacillus johnsonii; test: MIC/MBC bacteriostatic and bactericidal test; assay type: cell-based
Protocol: as §1

[7] = tested on: Streptococcus pneumoniae; test: MIC/MBC bacteriostatic and bactericidal test; assay type: cell-based
Protocol: as §1

[8] = tested on: Bacillus cereus; test: MIC/MBC bacteriostatic and bactericidal test; assay type: cell-based
Protocol: as §1

[9] = tested on: Enterobacter sakazakii; test: MIC/MBC bacteriostatic and bactericidal test; assay type: cell-based; conditions: Cronobacter sakazakii
Protocol: as §1

[10] = tested on: Salmonella enteritidis (ATCC85090); test: MIC/MBC bacteriostatic and bactericidal test; assay type: cell-based; conditions: Salmonella enterica
Protocol: as §1

[11] = tested on: Listeria monocytogenes (ATCC53005); test: MIC/MBC bacteriostatic and bactericidal test; assay type: cell-based
Protocol: as §1

[12] = tested on: Pneumococcus; test: MIC/MBC bacteriostatic and bactericidal test; assay type: cell-based
Protocol: as §1

[13] = tested on: Acinetobacter baumannii; test: MIC/MBC bacteriostatic and bactericidal test; assay type: cell-based
Protocol: as §1

[14] = tested on: Pasteurella multocida; test: MIC/MBC bacteriostatic and bactericidal test; assay type: cell-based
Protocol: as §1

[15] = tested on: Pneumococcus; test: Growth curve with melatonin and citric acid; assay type: cell-based, Diplococcus pneumoniae; conditions: MT 1-3 mg/mL, FIG. 27
Protocol: In additional studies, 1 mL of Klebsiella pneumoniae, Pseudomonas aeruginosa, Diplococcus pneumoniae and Streptococcus pneumoniae at the logarithmic growth stage was added into 100 mL of fresh and sterile Martin broth medium containing different concentrations of melatonin and citric acid (CA) (MT-1 mg/mL, MT-1 mg/mL-CA-1 mg/mL, MT-1 mg/mL-CA-2 mg/mL, MT-1 mg/mL-CA-3 mg/mL; MT-2 mg/mL, MT-2 mg/mL-CA-1 mg/mL, MT-2 mg/mL-CA-2 mg/mL, MT-2 mg/mL-CA-3 mg/mL; MT-3 mg/mL, MT-3 mg/mL-CA-1 mg/mL, MT-3 mg/mL-CA-2 mg/mL MT-3 mg/mL-CA-3 mg/mL).

[16] = tested on: citrate synthase in Klebsiella pneumoniae; test: Citrate synthase activity of bacteria after treatment; assay type: cell-based; conditions: MT 1-3 mg/mL, 12 h, FIG. 28
Protocol: (§2) Further, 1 mL of Klebsiella pneumoniae, Pseudomonas aeruginosa, Diplococcus pneumoniae and Streptococcus pneumoniae at the logarithmic growth stage was added into 100 mL of fresh and sterile Martin broth liquid medium containing different concentrations of melatonin and citric acid (MT-1 mg/mL, MT-2 mg/mL, MT-3 mg/mL, CA-1 mg/mL, CA-2 mg/mL, CA-3 mg/mL, MT-1 mg/mL-CA-1 mg/mL, MT-2 mg/mL-CA-2 mg/mL, MT-3 mg/mL-CA-3 mg/mL) added was. Melatonin-free DMSO was used as the solvent control group, and the bacterial cells were cultured in a constant-temperature shaker at 37° C. and 220 rpm for 12 h. Thereafter, 1 mL of the bacterial solution was pipetted and centrifuged at 3000 r/min for 10 minutes. The bacterial cells were then collected and determined for citrate synthase activity according to the protocol of the instructions for the kit. Each experiment was repeated three times, and each group was set in triplicate.

[17] = biological target: T1, citrate synthase in Pseudomonas aeruginosa (Pseudomonas aeruginosa, UniProt P14165); test: as above; assay type: cell-based; conditions: MT 1-3 mg/mL, 12 h, FIG. 28
T1 construct: The bacterial cells were then collected and determined for citrate synthase activity according to the protocol of the instructions for the kit; endogenous in cells; host or cells: Pseudomonas aeruginosa culture
Protocol: as §2

[18] = tested on: gram-negative bacteria and gram-positive bacteria; test: MIC/MBC test, summary over all tested bacteria; assay type: cell-based; conditions: range over all gram-negative and gram-positive bacteria of Table 1
Protocol: as §1

T1 sequence (P14165 whole entry): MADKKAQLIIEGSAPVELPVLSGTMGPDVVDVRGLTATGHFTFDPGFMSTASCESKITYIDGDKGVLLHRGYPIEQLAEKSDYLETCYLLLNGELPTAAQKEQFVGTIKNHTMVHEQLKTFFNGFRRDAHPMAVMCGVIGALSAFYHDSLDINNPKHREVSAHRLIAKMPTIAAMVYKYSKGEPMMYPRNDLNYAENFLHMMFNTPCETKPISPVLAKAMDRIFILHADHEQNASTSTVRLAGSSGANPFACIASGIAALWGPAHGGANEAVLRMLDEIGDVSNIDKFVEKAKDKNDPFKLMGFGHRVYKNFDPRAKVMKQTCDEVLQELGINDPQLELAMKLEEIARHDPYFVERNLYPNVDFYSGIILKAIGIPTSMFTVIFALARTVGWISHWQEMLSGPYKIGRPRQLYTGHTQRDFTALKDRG

## COc1ccc2[nH]cc(CCNC(C)=O)c2c1 [melatonin, N-acetyl-5-methoxytryptamine]
[1]
  acetyl coenzyme A level in bacterial cells: significantly up-regulated
  citric acid level in bacterial cells: significantly down-regulated
  pyruvic acid level in bacterial cells: significantly up-regulated
[2]; 37° C., 12 hours
  MIC: 12.5 mg/mL (≈ 53.8 mM)
[2]; agar plate 37° C., 24 hours
  MBC: 12.5 mg/mL (≈ 53.8 mM)
[3]; 37° C., 12 hours
  MIC: 12.5 mg/mL (≈ 53.8 mM)
[3]; agar plate 37° C., 24 hours
  MBC: 25 mg/mL (≈ 108 mM)
[4]; 37° C., 12 hours
  MIC: 50 mg/mL (≈ 215 mM)
[4]; agar plate 37° C., 24 hours
  MBC: 50 mg/mL (≈ 215 mM)
[5]; 37° C., 12 hours
  MIC: 3.12 mg/mL (≈ 13.5 mM)
[5]; agar plate 37° C., 24 hours
  MBC: 6.25 mg/mL (≈ 26.9 mM)
[6]; 37° C., 12 hours
  MIC: 25 mg/mL (≈ 108 mM)
[6]; agar plate 37° C., 24 hours
  MBC: 50 mg/mL (≈ 215 mM)
[7]; 37° C., 12 hours
  MIC: 12.5 mg/mL (≈ 53.8 mM)
[7]; agar plate 37° C., 24 hours
  MBC: 25 mg/mL (≈ 108 mM)
[8]; 37° C., 12 hours
  MIC: 6.25 mg/mL (≈ 26.9 mM)
[8]; agar plate 37° C., 24 hours
  MBC: 12.5 mg/mL (≈ 53.8 mM)
[9]; 37° C., 12 hours
  MIC: 6.25 mg/mL (≈ 26.9 mM)
[9]; agar plate 37° C., 24 hours
  MBC: 25 mg/mL (≈ 108 mM)
[10]; 37° C., 12 hours
  MIC: 12.5 mg/mL (≈ 53.8 mM)
[10]; agar plate 37° C., 24 hours
  MBC: 12.5 mg/mL (≈ 53.8 mM)
[11]; 37° C., 12 hours
  MIC: 12.5 mg/mL (≈ 53.8 mM)
[11]; agar plate 37° C., 24 hours
  MBC: 50 mg/mL (≈ 215 mM)
[12]; 37° C., 12 hours
  MIC: 12.5 mg/mL (≈ 53.8 mM)
[12]; agar plate 37° C., 24 hours
  MBC: 25 mg/mL (≈ 108 mM)
[13]; 37° C., 12 hours
  MIC: 12.5 mg/mL (≈ 53.8 mM)
[13]; agar plate 37° C., 24 hours
  MBC: 12.5 mg/mL (≈ 53.8 mM)
[14]; 37° C., 12 hours
  MIC: 1.56 mg/mL (≈ 6.73 mM)
[14]; agar plate 37° C., 24 hours, no bacterium grew
  MBC: 3.12 mg/mL (≈ 13.5 mM)
[15]
  antibacterial activity: exhibits antibacterial activity
[16]
  enzyme activity of citrate synthase: significantly reduces
[17]
  enzyme activity of citrate synthase: significantly reduces
[18]
  MBC: 3.12 to 50 mg/mL (≈ 13.5 to 215 mM)
  MIC: 1.56 to 50 mg/mL (≈ 6.73 to 215 mM)
